This passage reports IC50, melting point and isolated as metabolite results from patent US6803372B2, “Spiro compounds” (Banyu Pharmaceutical Co., Ltd., priority 1999, dated 2004).

One data set has as its target T1, human NPY Y5 receptor (Homo sapiens, UniProt Q15761).
T1 construct: expressed in transfected cells; host or cells: COS-7, CHO and LM(tk-)
T1 sequence (Q15761 1-445): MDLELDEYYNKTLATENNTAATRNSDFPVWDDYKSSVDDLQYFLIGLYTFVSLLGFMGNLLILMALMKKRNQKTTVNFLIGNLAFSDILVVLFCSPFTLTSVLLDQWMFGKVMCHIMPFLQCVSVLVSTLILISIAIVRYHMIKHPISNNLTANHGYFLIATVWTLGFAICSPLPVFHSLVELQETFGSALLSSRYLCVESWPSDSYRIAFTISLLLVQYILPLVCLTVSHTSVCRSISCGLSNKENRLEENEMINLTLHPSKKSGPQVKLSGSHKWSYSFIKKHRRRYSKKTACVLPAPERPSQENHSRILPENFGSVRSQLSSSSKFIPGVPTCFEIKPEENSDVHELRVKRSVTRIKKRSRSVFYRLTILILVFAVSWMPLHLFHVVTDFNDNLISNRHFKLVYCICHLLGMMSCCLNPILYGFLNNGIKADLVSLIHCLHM
As to the kind of experiment: NPY binding inhibition test (Pharmacological Test 1). As to conditions: [125I]peptideYY, membrane sample from cells expressing NPY Y5 receptor, 25° C., 2 hours; read-out: IC50 of the test compound against specific peptideYY binding. From the text: Pharmacological Test 1 (NPY Binding Inhibition Test)
cDNA sequence encoding human NPY Y5 receptor [International patent publication number WO96/16542] was cloned into expression vectors pcDNA3, pRc/RSV (made by Invitrogen Inc.) and pCI-neo (made by Promega Inc.). This obtained expression vectors were transfected to host cells COS-7, CHO and LM(tk-) (American Type Culture Collection) by cationic lipid method [Proceedings of the National Academy of Sciences of the United States of America, 84: 7413(1987)] to give NPY Y5 receptor expression cells.
A membrane sample prepared from the cells which expressed NPY Y5 receptor was incubated together with a test compound and [^125I]peptideYY (NEN) (20,000 cpm) in an assay buffer (25 mM Tris buffer, pH7.4, containing 10 mM magnesium chloride, 1 mM phenylmethylsulfonyl fluoride, 0.1% bacitracin and 0.5% bovine serum albumin) at 25° C. for 2 hours, then filtered through a glass filter GF/C and washed with 5 mM Tris buffer (pH7.4) containing 0.3% BSA. The radioactivity of the cake on the glass filter was measured. Nonspecific binding was measured in the presence of 1 μM peptideYY and a 50% Inhibitory Concentration (IC50) of the test compound against specific peptideYY binding was determined [Endocrinology, 131: 2090(1992)].

The nature of data set [1]: Isolation of metabolites of compound of example 101. As to conditions: parent: compound of example 101.

A value given as a limit tells only on which side of the number the result lay.

In the case of `O=C1Cc2ccccc2C2(CCN(C(=O)Nc3cn(-c4ccc5ccccc5n4)cn3)CC2)N1` [Example 9, 3,4-Dihydro-3-oxo-N-[1-(2-quinolyl)-4-imidazolyl]spiro[isoquinoline-1(2H),4′-piperidine]-1′-carboxamide], the melting point (usually the temperature, or range, at which the solid turns liquid) is 264 to 266 °C. Moreover, the IC50 (as a rule, the concentration that gives 50% inhibition) on human NPY Y5 receptor amounted to 0.72 nM.
For `O=C1OC2(CCN(C(=O)Nc3ccc4ncc(C(F)(F)F)cc4n3)CC2)c2ccccc21` [Example 26, 3-Oxo-N-(7-trifluoromethylpyrido[3,2-b]pyridin-2-yl)-spiro[isobenzofuran-1(3H),4′-piperidine]-1′-carboxamide] the same measures were 246 to 248 °C and 2.5 nM.
`O=C1OC2(CCC(C(=O)Nc3ncc(-c4ccccc4)cn3)CC2)c2ccccc21` (stereo not drawn) [Example 50, Trans-3′-oxo-N-(5-phenyl-2-pyrimidinyl)spiro[cyclohexane-1,1′(3′H)-isobenzofuran]-4-carboxamide]: the IC50 at human NPY Y5 receptor is 0.48 nM.
As for `O=C1OC2(CCC(C(=O)Nc3cn(-c4cnc5ccccc5c4)cn3)CC2)c2ccccc21` (stereo not drawn) [Example 55, Trans-3′-oxo-N-[1-(3-quinolyl)-4-imidazolyl]spiro[cyclohexane-1,1′(3′H)-isobenzofuran]-4-carboxamide], the melting point is more than 300 °C. Also, the IC50 on human NPY Y5 receptor amounted to 0.59 nM.
On to `O=C1OC2(CCC(C(=O)Nc3ccn(-c4ccccc4F)n3)CC2)c2c[n+]([O-])ccc21` (stereo not drawn) [Example 107, trans-N-[1-(2-fluorophenyl)-3-pyrazolyl]-3-oxospiro[6-azaisobenzofuran-1(3H),1′-cyclohexane]-4′-carboxamide 6-oxide], for which the IC50 at human NPY Y5 receptor worked out at 4.6 nM. For the same compound, in data set [1], the isolated as metabolite entry was “isolated as metabolites of compound of example 101”.
On to `O=C1OC2(CCC(C(=O)Nc3ccn(-c4ccc(O)cc4F)n3)CC2)c2cnccc21` (stereo not drawn) [Example 108, trans-N-[1-(2-fluoro-4-hydroxyphenyl)-3-pyrazolyl]-3-oxospiro[6-azaisobenzofuran-1(3H),1′-cyclohexane]-4′-carboxamide], for which the IC50 at human NPY Y5 receptor amounted to 3 nM. In data set [1], the isolated as metabolite result is “isolated as metabolites of compound of example 101”.
In the case of `O=C1OC2(CCC(O)(C(=O)Nc3ccn(-c4ccccc4F)n3)CC2)c2cnccc21` (stereo not drawn) [Example 109, cis-N-[1-(2-fluorophenyl)-3-pyrazolyl]-4′-hydroxy-3-oxospiro[6-azaisobenzofuran-1(3H),1′-cyclohexane]-4′-carboxamide], the isolated as metabolite result in data set [1] is “isolated as metabolites of compound of example 101”.
